Source: US20170368052A1, “CRYSTAL FORMS OF APOMORPHINE AND USES THEREOF” (NeuroDerm, Ltd., priority 2014, published 2017)
“Also recorded” adds a separate entry of the source. Structures can show the parent of a compound that is named as a salt.

How the values were obtained:
[1] = Stability of the reaction mixture at reflux in IPA with/without ascorbic acid-6-palmitate (HPLC); assay type: physicochemical; details: with ascorbic acid-6-palmitate, isolated solid
Experimental: In this case, the base was added under reflux and the procedure compared with and without ascorbic acid-6-palmitate as an antioxidant (Table 7).

[2] = cited from earlier work; for Literature pKa: bases of the base screen in n-BuOH; for pKa: amine bases used for salt release in IPA
[3] = Vacuum oven drying, retained solvent content; assay type: physicochemical; details: for Solvent content post-drying: vacuum oven, 45° C. for 24 h
Experimental: Four samples (B, G, H and O) were transferred to a vacuum oven and dried at 45° C. for 24 h.

[4] = Antioxidant additives: stability of apomorphine free base in MeOH solution (HPLC); assay type: physicochemical; details: MeOH (10 vol)
Experimental: However, the free base in solution is susceptible to aerial oxidation.
The vial was flushed with air, sealed, and stirred. The reactions were compared with a control reaction having no antioxidant. • A—in MeOH (10 vol) (control reaction) • B—ascorbic acid-6-palmitate (10 wt %) in MeOH (10 vol) • C—BHT (10 wt %) in MeOH (10 vol)
Samples were analyzed by HPLC. […] The HPLC profile just after addition of the antioxidant was of similar purity for each sample. After 24 h, sample B had precipitated a small amount of solid in a pale green solution. […] Key impurities elute early in the HPLC profile at RRT 0.15 and 0.18. In the samples without ascorbic acid-6-palmitate these impurities were >1.5% area.

[5] = Solubility of apomorphine free base and HCl salt in solvents; assay type: physicochemical
Experimental: This material was used in 50 mg portions (A0513-06).
The free base is fully soluble in 5 vol of either MeOH, EtOH, or n-BuOH. […] The free base precipitated as an oil from most solvents, particularly after heating. An apparently crystalline solid formed following dissolution of the free base and cooling in 1,4-dioxane.

[6] = Stability to air (color visually monitored); assay type: physicochemical; details: visual
Excerpt: Samples of free base isolated from water, IPA, and MeOAc were retained open to air and the color visually monitored (FIG. 2). Over the course of 2 days, the products isolated from organic solvents discolored to green solids. […]

In the case of `CC(C)O.CN1CCc2cccc3c2C1Cc1ccc(O)c(O)c1-3` (stereo not shown) [A0513-98-03], the “% area: RRT 1.00” value [1] is reported as 99.93 % area and the “% area: RRT 1.25” value [1] is reported as 0.07 % area.

For `C[N+](C)(C)CC(=O)O` [Betaine], the “Literature pKa” value [2] is listed as 12.16.

For `CN1CCc2cccc3c2[C@H]1Cc1ccc(O)c(O)c1-3` [H], the Solvent content post-drying [3] was 20.0 % w/w.

In the case of `CN(C1CCCCC1)C1CCCCC1` [N-methyl-dicyclohexyl amine], the pKa [2] is given as 9.25.

`CN1CCc2cccc3c2[C@H]1Cc1ccc(O)c(O)c1-3` [O] showed a Solvent content post-drying [3] of 7.8 % w/w.

In the case of `CN1CCc2cccc3c2[C@H]1Cc1ccc(O)c(O)c1-3` [Sample B], the Solvent content post-drying [3] is reported as 23.4 % w/w, the “HPLC purity compared between samples” value ([4]; after 24 h) is reported as “higher than for either A or C” and the “HPLC purity compared between samples” value ([4]; after 72 h) is reported as “highest purity”.

Work on `CN1CCc2cccc3c2[C@H]1Cc1ccc(O)c(O)c1-3` [Sample G] yielded an IPA content remaining ([3]; 75° C. for 17 h under vacuum) of 17.4 % w/w.

For `CC1(C)CCCC(C)(C)N1` [TMP, 2,2,6,6-tetramethylpiperidine], the pKa [2] is given as 11.07 and the “Literature pKa” value [2] is given as 11.07.

With `CN1CCc2cccc3c2[C@H]1Cc1ccc(O)c(O)c1-3` [apomorphine hydrochloride] the Solubility in methanol ([5]; listed as HCl salt, hydrochloride) was “the only solvent that dissolved any significant amount; also recorded: moderate solubility” and the “Solubility in n-BuOH” value ([5]; up to 20 vol at reflux) was “did not dissolve”.

In the case of `CN1CCc2cccc3c2[C@H]1Cc1ccc(O)c(O)c1-3` [apomorphine], the “Solubility in EtOH” value ([5]; 5 vol, 50 mg portions) is reported as “fully soluble”, the “Solubility in MeOH” value ([5]; 5 vol, 50 mg portions) is reported as “fully soluble” and the “Solubility in n-BuOH” value ([5]; 5 vol, 50 mg portions) is reported as “fully soluble”. The “Color of solid retained open to air” value ([6]; over 2 days) was “did not appear to change” and the “Time over which the solid gradually discolored open to air” value [6] was “about 4 weeks”.
